The conditions of series [1]: Phase 3 clinical trials; cited from earlier work.
For series [2], the system named is native stop codons (TAA, TAG, TGA), 3′UTR ribosome density. Description: Ribosome footprint profiling of transcriptome-wide 3′UTRs, HEK293 cells. The class given is cell-based, human. An excerpt:
The question was raised whether ACE-tRNAs that show efficacious suppression of premature stop codons may also induce global readthrough of native stop codons. To address this potential “off target” suppression, a transcriptome-wide quantitative profile of actively engaged ribosomes on all cellular transcripts was obtained by generating libraries of ribosome footprints from HEK293 cells expressing exogenous ACE-tRNAs or a control mock plasmid (puc57GG). Streptomycin was removed from the growth media to prevent readthrough artifacts. For comparison, the ribosome footprint library was also generated from cells in the presence or absence of G418 (150 μM, 48 h). […] Only transcripts with a minimum threshold of 5 RPKM in the coding sequence and 0.5 RPKM in the 3′UTR in two replicate libraries were included for the quantitation comparison (254 transcripts in G418 and 495-748 transcripts in ACE-tRNAs). […] ACE-tRNAs examined here had no detectable change of 3′UTR ribosome density with the exception of ACE-tRNA Gln-UAA and Arg-UGA which induced approximately a 2-fold increase in 3′UTR ribosome density for the cognate stop codon complimentary to the ACE-tRNA anticodon. Understanding the biological significance of 2-fold readthrough of protein stops will require further study, but this effect is substantially lower compared to the 100- to 1000-fold suppression of PTC for the same ACE-tRNA.
Multiple in-frame stop codons are frequently found at the end of genes 37-39 and may cause a minor difference in overall 3′UTR ribosome density for ACE-tRNA and G418 treatment. Ribosome occupancy was examined at each nucleotide in the 3′UTR within a 60 nt region downstream of the stop codons. […] Reads were normalized per total million-mapped reads, compared against control cells, and reported as a log 2-fold change as in panel A. More than 5,200 transcripts were mapped to at least 1 footprint in the region of interest. […] Taken together, the ribosome profiling data argue that efficiency of native stop codon suppression by ACE-tRNAs is generally low, and markedly less than the level of PTC suppression.
Ribosome Footprint Profiling Library preparation. HEK293 cells transiently transfected with ACE-tRNAs and control plasmid (puc57GG) were grown in standard grown media in the absence of Pen-Strep for 48 h. Libraries were prepared as described^55, with a few modifications. Briefly, cells were rapidly cooled by addition of ice-cold PBS, lysed in lysis buffer (20 mM Tris-HCl/pH7.4, 150 mM NaCl, 5 mM MgCl2, 1 mM DTT, 1% (v/v) Triton X-100, and 25 U ml^−1 Turbo DNase I) for 10 min on ice, and triturated with ten times through a 26-G needle. […]

The test system of another series is NLuc-UGA PTC reporter. Description: NanoLuc nonsense reporter screen of ACE-tRNA, UGA (TGA) PTC, HEK293 cells. The class given is cell-based, human. To be noted: t-stem variants, luciferase 24 hours post-transfection, HEK cells. An excerpt:
Several different nonsense mutations cause CF, thus underlying roughly 10% of all CF disease. FIG. 7. These cases are concentrated into […] specific genetic lesions: E60X, R75X, G542X, R553X, Q890X, Y1092X, R1158X, R1162X and W1282X. We propose that it should be feasible, with the right approach, to screen existing human tRNA sequences for modification and tolerance to anti-codon editing. To this end, roughly 144 ACE-tRNAs were candidates to test for those that could be used to promote the repair of the disease causative nonsense codon and the expression of the full-length protein. Specifically, using the scheme described in FIG. 11, tRNA libraries were generated to identify novel tRNA sequences that encode for ACE tRNA with the ability to repair the top CF causative nonsense mutations. Specifically, 10 ng of annealed oligos encoding the ACE-tRNAs were combined with 50 ng of NanoLuc reporter plasmid, 1 ul 10× CutSmart Buffer (NEB), 1 ul T4 ligase (NEB), 10 mM ATP and 1 ul BbsI (NEB) and cycled in a thermocycler as described in FIG. 11. 1 ul of the reaction was transformed into competent E. coli and the transformants were plated on ampicillin agar plates. […]
Screening studies were first performed to identify the best ACE-tRNA Candidates from tryptophan and glycine. […] Plates were read on a SpectraMax i3 (Molecular Devices). […]

For `O=C(O)c1cccc(-c2noc(-c3ccccc3F)n2)c1` [Ataluren], the “efficacy in patient populations” value in series [1] was “unexpectedly low efficacy”. Consider `CN[C@@H]1[C@@H](O)[C@@H](O[C@@H]2[C@@H](O)[C@H](O[C@H]3O[C@H]([C@@H](C)O)[C@@H](O)[C@H](O)[C@H]3N)[C@@H](N)C[C@H]2N)OC[C@]1(C)O` [G418, reference compound], for which the “effect on transcriptome-wide 3′UTR ribosome density” value in series [2] (G418 150 μM, 48 h, ACE-tRNAs transiently transfected) is on record as “no observable effect on transcriptome-wide 3′UTR ribosome density”. Also, the “ribosome occupancy in the early region of 3′UTR downstream of stop codons” value in series [2] (per nucleotide, -35 to +65 nt) is “no observable change of ribosome occupancy”.

B1: TS-38 52-62 G-C: t-stem variant of Trpchr17.trna39, SEQ ID NO: 3 (nucleic acid)
chain: GGCCUCGUGGCGCAACGGUAGCGCGUCUGACUUCAGAUCAGAAGGUUCCGGGUUCAAAUCCCGGCGGGGUCA
modifications: expressed or natural sequence
As for B1, in the series with NLuc-UGA PTC reporter, the “increase of suppression activity relative to Trpchr17.trna39” value is “roughly 250%”.

B2: TS-10 52-62 G-C: t-stem mutant of Trpchr17.tRNA 39, FIG. 12B, SEQ ID NO: 589 (nucleic acid)
chain: GACCUCGUGGCGCAACGGUUAGCGCGUCUGACUUCAGAUCAGAAGGCUCCGGGUUCGAAUCCCGGCGGGGUCA
modifications: expressed or natural sequence
Take B2: in the series with NLuc-UGA PTC reporter, the “increase of suppression activity relative to Trpchr17.trna39” value is listed as approximately 250%.
